Measurements: the kinase profiling compilation of Christmann-Franck et al. (2016)

Legend:
Assay in all cases: radiometric filter-binding kinase assay
[1] = system: AKT1 (human), P31749 [S473D]
BTK (human) = BTK (human) (UniProt Q06187)
CaMK1 (human) = CaMK1 (human) (UniProt Q14012)
ERBB4 (human) = ERBB4 (human) (UniProt Q15303)
FGFR1 (human) = FGFR1 (human) (UniProt P11362)
HIPK3 (human) = HIPK3 (human) (UniProt Q9H422)
INSR (human) = INSR (human) (UniProt P06213)
LCK (mouse) = details: accession and sequence are those of the human protein
MAP3K11 (human) = MAP3K11 (human) (UniProt Q16584)
MAP3K11 (human), sequence (Q16584 whole entry, looked up): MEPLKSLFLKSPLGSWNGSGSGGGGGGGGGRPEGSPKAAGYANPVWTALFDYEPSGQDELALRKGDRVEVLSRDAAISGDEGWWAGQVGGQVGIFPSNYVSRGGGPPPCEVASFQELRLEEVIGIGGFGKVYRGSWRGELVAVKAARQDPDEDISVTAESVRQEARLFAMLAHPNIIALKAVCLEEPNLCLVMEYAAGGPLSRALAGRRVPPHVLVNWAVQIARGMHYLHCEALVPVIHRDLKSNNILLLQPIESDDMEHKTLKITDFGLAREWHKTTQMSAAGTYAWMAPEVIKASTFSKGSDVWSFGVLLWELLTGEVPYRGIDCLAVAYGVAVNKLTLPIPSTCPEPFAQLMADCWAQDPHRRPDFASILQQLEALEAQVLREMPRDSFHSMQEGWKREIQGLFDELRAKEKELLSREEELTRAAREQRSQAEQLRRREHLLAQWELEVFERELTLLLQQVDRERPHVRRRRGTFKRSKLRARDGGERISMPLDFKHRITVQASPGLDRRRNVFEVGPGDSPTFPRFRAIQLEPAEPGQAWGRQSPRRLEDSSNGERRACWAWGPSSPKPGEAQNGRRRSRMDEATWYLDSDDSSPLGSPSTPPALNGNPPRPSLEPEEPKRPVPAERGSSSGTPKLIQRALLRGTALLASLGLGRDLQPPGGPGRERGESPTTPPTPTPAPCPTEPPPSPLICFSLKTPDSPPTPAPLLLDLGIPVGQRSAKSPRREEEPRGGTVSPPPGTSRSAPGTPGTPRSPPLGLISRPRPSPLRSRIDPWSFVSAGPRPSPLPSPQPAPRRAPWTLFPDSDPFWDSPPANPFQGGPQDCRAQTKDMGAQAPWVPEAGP

MAPK10 (human) = MAPK10 (human) (UniProt P53779)
MAPK10 (human), sequence (P53779 whole entry, looked up): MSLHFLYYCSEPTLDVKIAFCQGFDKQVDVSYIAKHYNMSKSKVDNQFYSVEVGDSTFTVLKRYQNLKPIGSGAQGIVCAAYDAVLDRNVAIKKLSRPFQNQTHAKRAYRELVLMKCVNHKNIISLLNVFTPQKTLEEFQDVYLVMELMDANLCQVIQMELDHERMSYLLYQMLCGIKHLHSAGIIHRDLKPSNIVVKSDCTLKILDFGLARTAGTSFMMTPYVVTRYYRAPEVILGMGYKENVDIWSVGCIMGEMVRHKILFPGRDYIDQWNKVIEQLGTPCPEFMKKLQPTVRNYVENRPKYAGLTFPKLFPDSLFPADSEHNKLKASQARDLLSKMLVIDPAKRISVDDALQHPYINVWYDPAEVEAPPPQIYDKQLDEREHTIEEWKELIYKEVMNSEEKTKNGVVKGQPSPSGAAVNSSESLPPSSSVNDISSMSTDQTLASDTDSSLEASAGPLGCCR

MAPK12 (human) = MAPK12 (human) (UniProt P53778)
MAPK12 (human), sequence (P53778 whole entry, looked up): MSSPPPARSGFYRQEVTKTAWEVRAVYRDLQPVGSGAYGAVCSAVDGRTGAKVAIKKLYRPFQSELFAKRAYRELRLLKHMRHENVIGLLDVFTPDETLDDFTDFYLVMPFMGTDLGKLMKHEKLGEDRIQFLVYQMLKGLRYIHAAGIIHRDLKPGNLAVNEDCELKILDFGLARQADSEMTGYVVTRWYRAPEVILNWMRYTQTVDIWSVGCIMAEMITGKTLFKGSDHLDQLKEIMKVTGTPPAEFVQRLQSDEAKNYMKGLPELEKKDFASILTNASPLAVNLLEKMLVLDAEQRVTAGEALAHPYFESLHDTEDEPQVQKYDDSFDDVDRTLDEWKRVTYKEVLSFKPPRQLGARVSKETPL

MAPK3 (human) = MAPK3 (human) (UniProt P27361)
MAPK3 (human), sequence (P27361 whole entry, looked up): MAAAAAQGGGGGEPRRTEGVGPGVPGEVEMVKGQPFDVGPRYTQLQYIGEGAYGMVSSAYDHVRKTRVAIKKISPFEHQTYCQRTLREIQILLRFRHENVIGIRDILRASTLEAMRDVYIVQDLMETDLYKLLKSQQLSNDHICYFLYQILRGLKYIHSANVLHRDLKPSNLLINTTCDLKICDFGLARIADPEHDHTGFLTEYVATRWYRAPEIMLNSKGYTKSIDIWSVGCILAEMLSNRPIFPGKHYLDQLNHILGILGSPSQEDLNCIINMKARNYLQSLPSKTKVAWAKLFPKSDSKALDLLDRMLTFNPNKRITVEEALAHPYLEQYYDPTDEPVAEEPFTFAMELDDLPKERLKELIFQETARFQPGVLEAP

MAPKAPK5 (human) = MAPKAPK5 (human) (UniProt Q8IW41)
MAPKAPK5 (human), sequence (Q8IW41 whole entry, looked up): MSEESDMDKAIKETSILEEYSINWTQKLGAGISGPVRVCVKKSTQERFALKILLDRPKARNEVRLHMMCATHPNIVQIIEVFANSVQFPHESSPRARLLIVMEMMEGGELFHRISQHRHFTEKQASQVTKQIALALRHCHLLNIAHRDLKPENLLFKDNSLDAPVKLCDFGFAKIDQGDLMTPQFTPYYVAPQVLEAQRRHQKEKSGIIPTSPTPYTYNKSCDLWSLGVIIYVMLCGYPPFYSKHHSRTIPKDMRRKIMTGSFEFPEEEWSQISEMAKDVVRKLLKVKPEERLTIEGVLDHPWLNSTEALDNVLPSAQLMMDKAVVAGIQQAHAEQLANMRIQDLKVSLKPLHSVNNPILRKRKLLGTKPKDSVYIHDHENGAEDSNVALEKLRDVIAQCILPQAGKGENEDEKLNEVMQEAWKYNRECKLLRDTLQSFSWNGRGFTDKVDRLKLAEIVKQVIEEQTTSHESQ

MARK3 (human) = MARK3 (human) (UniProt P27448)
PHKG1 (human) = PHKG1 (human) (UniProt Q16816)
PIM2 (human) = PIM2 (human) (UniProt Q9P1W9)
PRKACA (human) = PRKACA (human) (UniProt P17612)
RPS6KA1 KD1 KD2 (human) = RPS6KA1 KD1 KD2 (human) (UniProt Q15418)
[2] = molecular target: STK11 CAB39 STRADA (human) (UniProt Q9Y376+Q7RTN6+Q15831)
STK3 (human) = STK3 (human) (UniProt Q13188)

AKT1 (human), P31749 [S473D], sequence (P31749 whole entry S473D, looked up): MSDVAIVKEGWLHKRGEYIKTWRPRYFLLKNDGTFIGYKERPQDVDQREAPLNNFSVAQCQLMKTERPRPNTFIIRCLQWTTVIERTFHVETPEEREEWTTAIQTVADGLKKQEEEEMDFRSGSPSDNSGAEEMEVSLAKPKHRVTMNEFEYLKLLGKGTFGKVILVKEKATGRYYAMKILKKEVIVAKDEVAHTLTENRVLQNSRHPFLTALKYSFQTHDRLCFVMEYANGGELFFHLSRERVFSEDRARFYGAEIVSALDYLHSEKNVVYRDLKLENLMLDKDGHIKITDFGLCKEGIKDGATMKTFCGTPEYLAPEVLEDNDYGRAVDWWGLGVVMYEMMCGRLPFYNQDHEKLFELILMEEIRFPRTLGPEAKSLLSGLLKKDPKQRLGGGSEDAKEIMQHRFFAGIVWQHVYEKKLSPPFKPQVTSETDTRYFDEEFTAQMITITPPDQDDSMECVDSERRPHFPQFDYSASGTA
ERBB4 (human), sequence (Q15303 whole entry, looked up): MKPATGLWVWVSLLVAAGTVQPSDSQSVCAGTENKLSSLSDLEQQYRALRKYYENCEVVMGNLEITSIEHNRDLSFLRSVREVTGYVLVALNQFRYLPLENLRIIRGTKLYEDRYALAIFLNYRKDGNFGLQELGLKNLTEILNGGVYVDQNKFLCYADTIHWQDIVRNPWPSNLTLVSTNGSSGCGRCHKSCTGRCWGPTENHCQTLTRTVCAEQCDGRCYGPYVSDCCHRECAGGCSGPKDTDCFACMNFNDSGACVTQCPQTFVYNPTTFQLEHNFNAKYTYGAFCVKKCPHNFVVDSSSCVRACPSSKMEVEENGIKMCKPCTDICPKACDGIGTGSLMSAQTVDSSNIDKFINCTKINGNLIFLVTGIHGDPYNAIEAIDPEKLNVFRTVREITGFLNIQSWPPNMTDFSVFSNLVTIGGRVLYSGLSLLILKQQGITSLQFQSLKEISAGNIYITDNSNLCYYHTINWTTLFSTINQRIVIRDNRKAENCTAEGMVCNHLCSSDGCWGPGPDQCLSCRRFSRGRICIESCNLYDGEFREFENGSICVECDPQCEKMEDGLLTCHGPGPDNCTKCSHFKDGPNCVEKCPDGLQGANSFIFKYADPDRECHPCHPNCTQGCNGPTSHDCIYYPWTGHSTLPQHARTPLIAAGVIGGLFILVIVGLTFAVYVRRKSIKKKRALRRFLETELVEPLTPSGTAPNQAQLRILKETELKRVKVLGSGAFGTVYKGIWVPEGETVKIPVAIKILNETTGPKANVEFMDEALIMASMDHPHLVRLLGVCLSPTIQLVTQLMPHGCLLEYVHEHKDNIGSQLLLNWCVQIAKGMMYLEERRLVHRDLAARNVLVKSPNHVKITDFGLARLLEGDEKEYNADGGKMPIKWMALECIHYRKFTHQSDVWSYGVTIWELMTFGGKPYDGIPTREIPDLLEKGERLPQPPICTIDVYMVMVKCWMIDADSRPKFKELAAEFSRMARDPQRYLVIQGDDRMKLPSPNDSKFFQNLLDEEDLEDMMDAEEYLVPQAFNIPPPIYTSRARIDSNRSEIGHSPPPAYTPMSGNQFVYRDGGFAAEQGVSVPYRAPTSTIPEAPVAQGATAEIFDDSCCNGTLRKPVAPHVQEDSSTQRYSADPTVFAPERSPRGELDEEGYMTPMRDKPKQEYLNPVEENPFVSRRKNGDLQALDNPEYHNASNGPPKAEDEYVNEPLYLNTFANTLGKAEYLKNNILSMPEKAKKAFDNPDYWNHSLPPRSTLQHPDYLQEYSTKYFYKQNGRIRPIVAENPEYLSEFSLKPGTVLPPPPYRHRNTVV
BTK (human), sequence (Q06187 whole entry, looked up): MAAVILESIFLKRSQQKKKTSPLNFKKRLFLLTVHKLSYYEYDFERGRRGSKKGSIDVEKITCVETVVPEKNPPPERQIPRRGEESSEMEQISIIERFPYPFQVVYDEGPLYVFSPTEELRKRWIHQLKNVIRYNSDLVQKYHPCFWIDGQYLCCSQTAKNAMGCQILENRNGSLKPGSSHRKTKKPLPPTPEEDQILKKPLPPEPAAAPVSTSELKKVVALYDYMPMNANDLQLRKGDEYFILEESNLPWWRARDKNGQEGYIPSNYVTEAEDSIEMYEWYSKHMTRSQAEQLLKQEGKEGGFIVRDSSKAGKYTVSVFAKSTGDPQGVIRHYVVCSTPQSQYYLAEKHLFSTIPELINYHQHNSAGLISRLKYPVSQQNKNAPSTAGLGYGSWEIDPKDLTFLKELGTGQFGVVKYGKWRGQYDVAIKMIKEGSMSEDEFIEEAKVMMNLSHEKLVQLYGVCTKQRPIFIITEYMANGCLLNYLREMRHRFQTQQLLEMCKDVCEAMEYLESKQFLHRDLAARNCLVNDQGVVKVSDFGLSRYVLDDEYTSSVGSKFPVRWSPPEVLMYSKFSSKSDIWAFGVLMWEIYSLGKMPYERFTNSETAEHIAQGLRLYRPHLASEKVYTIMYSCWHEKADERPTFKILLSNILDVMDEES

**Q.** With `CNc1nc(-c2ccc3c(N)n[nH]c3c2)cc(N2C[C@@H](C(=O)NC3CCCCC3)CC[C@H]2C)n1` as the compound, how does the residual activity ([1]; compound 0.01 µM) read?
**A.** Its residual activity is 179%.

**Q.** What about the residual activity ([1]; compound 0.1 µM) of the same compound?
**A.** The residual activity was 117%.

**Q.** And the residual activity ([1]; compound 1.0 µM)?
**A.** The residual activity was 97%.

**Q.** What about the residual activity (BTK (human); compound 0.01 µM) of the same compound?
**A.** Its residual activity is 126%.

**Q.** And the residual activity (BTK (human); compound 0.1 µM)?
**A.** Its residual activity is 121%.

**Q.** And the residual activity (BTK (human); compound 1.0 µM)?
**A.** The residual activity was 110%.

**Q.** And the residual activity (CaMK1 (human); compound 0.01 µM)?
**A.** The residual activity was 108%.

**Q.** And the residual activity (CaMK1 (human); compound 0.1 µM)?
**A.** Its residual activity is 112%.

**Q.** And the residual activity (CaMK1 (human); compound 1.0 µM)?
**A.** The residual activity was 117%.

**Q.** And the residual activity (ERBB4 (human); compound 0.01 µM)?
**A.** Its residual activity is 106%.

**Q.** What about the residual activity (ERBB4 (human); compound 0.1 µM) of the same compound?
**A.** The residual activity was 107%.

**Q.** What about the residual activity (ERBB4 (human); compound 1.0 µM) of the same compound?
**A.** The residual activity was 106%.

**Q.** What about the residual activity (FGFR1 (human); compound 0.01 µM) of the same compound?
**A.** The residual activity was 119%.

**Q.** And the residual activity (FGFR1 (human); compound 0.1 µM)?
**A.** The residual activity was 119%.

**Q.** What about the residual activity (FGFR1 (human); compound 1.0 µM) of the same compound?
**A.** Its residual activity is 110%.

**Q.** And the residual activity (HIPK3 (human); compound 0.01 µM)?
**A.** The residual activity was 111%.

**Q.** And the residual activity (HIPK3 (human); compound 0.1 µM)?
**A.** The residual activity was 105%.

**Q.** What about the residual activity (HIPK3 (human); compound 1.0 µM) of the same compound?
**A.** Its residual activity is 106%.

**Q.** What about the residual activity (INSR (human); compound 0.01 µM) of the same compound?
**A.** The residual activity was 101%.

**Q.** And the residual activity (INSR (human); compound 0.1 µM)?
**A.** Its residual activity is 103%.

**Q.** What about the residual activity (INSR (human); compound 1.0 µM) of the same compound?
**A.** Its residual activity is 102%.

**Q.** What about the residual activity (LCK (mouse); compound 0.01 µM) of the same compound?
**A.** Its residual activity is 112%.

**Q.** And the residual activity (LCK (mouse); compound 0.1 µM)?
**A.** The residual activity was 107%.

**Q.** And the residual activity (LCK (mouse); compound 1.0 µM)?
**A.** Its residual activity is 114%.

**Q.** What about the residual activity (MAP3K11 (human); compound 0.01 µM) of the same compound?
**A.** Its residual activity is 100%.

**Q.** What about the residual activity (MAP3K11 (human); compound 0.1 µM) of the same compound?
**A.** The residual activity was 110%.

**Q.** And the residual activity (MAP3K11 (human); compound 1.0 µM)?
**A.** The residual activity was 87%.

**Q.** And the residual activity (MAPK10 (human); compound 0.01 µM)?
**A.** Its residual activity is 106%.

**Q.** And the residual activity (MAPK10 (human); compound 0.1 µM)?
**A.** Its residual activity is 106%.

**Q.** And the residual activity (MAPK10 (human); compound 1.0 µM)?
**A.** Its residual activity is 100%.

**Q.** What about the residual activity (MAPK12 (human); compound 0.01 µM) of the same compound?
**A.** The residual activity was 109%.

**Q.** And the residual activity (MAPK12 (human); compound 0.1 µM)?
**A.** The residual activity was 110%.

**Q.** What about the residual activity (MAPK12 (human); compound 1.0 µM) of the same compound?
**A.** The residual activity was 106%.

**Q.** What about the residual activity (MAPK3 (human); compound 0.01 µM) of the same compound?
**A.** Its residual activity is 93%.

**Q.** What about the residual activity (MAPK3 (human); compound 0.1 µM) of the same compound?
**A.** Its residual activity is 106%.

**Q.** What about the residual activity (MAPK3 (human); compound 1.0 µM) of the same compound?
**A.** The residual activity was 94%.

**Q.** And the residual activity (MAPKAPK5 (human); compound 0.01 µM)?
**A.** Its residual activity is 81%.

**Q.** And the residual activity (MAPKAPK5 (human); compound 0.1 µM)?
**A.** Its residual activity is 92%.

**Q.** And the residual activity (MAPKAPK5 (human); compound 1.0 µM)?
**A.** Its residual activity is 76%.

**Q.** And the residual activity (MARK3 (human); compound 0.01 µM)?
**A.** The residual activity was 113%.

**Q.** And the residual activity (MARK3 (human); compound 0.1 µM)?
**A.** The residual activity was 109%.

**Q.** And the residual activity (MARK3 (human); compound 1.0 µM)?
**A.** The residual activity was 114%.

**Q.** And the residual activity (PHKG1 (human); compound 0.01 µM)?
**A.** Its residual activity is 106%.

**Q.** What about the residual activity (PHKG1 (human); compound 0.1 µM) of the same compound?
**A.** Its residual activity is 108%.

**Q.** What about the residual activity (PHKG1 (human); compound 1.0 µM) of the same compound?
**A.** Its residual activity is 103%.

**Q.** What about the residual activity (PIM2 (human); compound 0.01 µM) of the same compound?
**A.** The residual activity was 97%.

**Q.** What about the residual activity (PIM2 (human); compound 0.1 µM) of the same compound?
**A.** The residual activity was 100%.

**Q.** And the residual activity (PIM2 (human); compound 1.0 µM)?
**A.** Its residual activity is 97%.

**Q.** And the residual activity (PRKACA (human); compound 0.01 µM)?
**A.** Its residual activity is 103%.

**Q.** What about the residual activity (PRKACA (human); compound 0.1 µM) of the same compound?
**A.** Its residual activity is 111%.

**Q.** What about the residual activity (PRKACA (human); compound 1.0 µM) of the same compound?
**A.** Its residual activity is 98%.

**Q.** And the residual activity (RPS6KA1 KD1 KD2 (human); compound 0.01 µM)?
**A.** Its residual activity is 123%.

**Q.** And the residual activity (RPS6KA1 KD1 KD2 (human); compound 0.1 µM)?
**A.** The residual activity was 113%.

**Q.** What about the residual activity (RPS6KA1 KD1 KD2 (human); compound 1.0 µM) of the same compound?
**A.** Its residual activity is 94%.

**Q.** What about the residual activity ([2]; compound 0.01 µM) of the same compound?
**A.** The residual activity was 104%.

**Q.** And the residual activity ([2]; compound 0.1 µM)?
**A.** The residual activity was 124%.

**Q.** What about the residual activity ([2]; compound 1.0 µM) of the same compound?
**A.** The residual activity was 100%.

**Q.** What about the residual activity (STK3 (human); compound 0.01 µM) of the same compound?
**A.** The residual activity was 116%.

**Q.** And the residual activity (STK3 (human); compound 0.1 µM)?
**A.** Its residual activity is 128%.

**Q.** And the residual activity (STK3 (human); compound 1.0 µM)?
**A.** The residual activity was 112%.
